How the values were obtained:
[1] = tested on: Lepeophtheirus salmonis; assay: Salmon - in vivo efficacy against sea lice using gavage administration; conditions: po, 168 h, read-out: therapeutic efficacy against (pre-)adult sea lice (% reduction vs control), salmon, 5 mg/kg once by gavage, day -28 infestation, counted day 7
[2] = tested on: bed bugs (Cimex lectularius); assay: Guinea pig - efficacy against bed bug; assay type: in vivo; conditions: Day 0
How it was run: (§1)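 Guinea pigs given 5 mg/kg test compound orally (gavage) or s.c. in 10% DMF/emulsifier plus 90% water for injection, with local co-infestations of Ornithodoros moubata juveniles and Cimex lectularius at several post-treatment times. Engorged parasites scored dead/damaged about 24 h after collection; % inhibition versus pretreatment baseline by modified Schneider-Orelli formula.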

[3] = tested on: Mobile stages of sea lice (pre-adults, adults of Lepeophtheirus salmonis); assay: Adult sea lice contact assay; conditions: pre-adults/adults, assessed after ~1 and 24 h, read-out: EC50 (sea lice inhibition, dead+damaged)
Method: Mobile stages of sea lice (i.e., pre-adults, adults of Lepeophtheirus salmonis) were exposed to seawater spiked with declining concentrations of a test compound (dissolved in a PEG sea-water mixture). Sea lice inhibition (% of dead+damaged sea lice) was assessed after approximately 1 and 24 hours of continuous exposure in comparison to a negative (solvent) control group.

[4] = tested on: juvenile soft ticks (Ornithodoros moubata); assay: Guinea pig - efficacy against argaside tick; assay type: in vivo
How it was run: as §1

[5] = tested on: Copepodids (juvenile sea lice stage of Lepeophtheirus salmonis); assay: Juvenile sea lice contact assay; conditions: Lepeophtheirus salmonis; 10 nM in seawater; ~24 h; read-out: Sea lice inhibition (% of dead+damaged copepodids)
Method: Copepodids (juvenile sea lice stage of Lepeophtheirus salmonis) were exposed to seawater spiked with declining concentrations of a test compound (dissolved in a DMSO sea-water mixture). Sea lice inhibition (% of dead+damaged copepodids) was assessed after approximately 24 hours of continuous exposure. The vitality of used parasites was confirmed in a negative (solvent) control group.

[6] = tested on: Lepeophtheirus salmonis; assay: Salmon - in vivo efficacy against sea lice using gavage administration; conditions: 5 mg/kg once by gavage, counted around day 28; for therapeutic efficacy against juvenile sea lice (% reduction vs control): day -3 infestation
How it was run: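 Salmon given a single oral gavage of 5 mg/kg in 5% DMSO/95% fish oil on day 0, with vehicle controls. L. salmonis copepodid infestations around days −28, −3 and 17; lice counted by stage around day 28, efficacy as % reduction versus control by Abbott's formula.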

SMILES	inhibition in vivo at 5 mg/kg [1] [%]	activity against bed bugs (≥80% inhibition, killed+damaged) ([2]; 5 mg/kg oral)	activity against bed bugs (≥80% inhibition, killed+damaged) ([2]; 5 mg/kg subcutaneous)	EC50 [3] [nM]	activity against tick nymphs (≥80% inhibition, killed+damaged) ([4]; 5 mg/kg oral, Day 0)	activity against tick nymphs (≥80% inhibition, killed+damaged) ([4]; 5 mg/kg subcutaneous, Day 0)	activity against tick nymphs (≥80% inhibition, killed+damaged) ([4]; 5 mg/kg subcutaneous, after 7 days)	inhibition at 0.01 µM [5] [%]	therapeutic efficacy against juvenile sea lice (% reduction vs control) [6] [%]	prophylactic efficacy at re-infestation on Day 17 (% reduction vs control) [6] [%]	duration of efficacy, subcutaneous compared with oral administration ([4]; 5 mg/kg, ticks and bed bugs)
O=C(Nc1c(F)cc(F)cc1F)c1cc(NC(=O)[C@H]2[C@H](c3cc(Cl)cc(Cl)c3)C2(Cl)Cl)ccc1Cl [Compound 449]	80	immediate activity	immediate activity	10 to 25	immediate activity	immediate activity	activity	100	80	–	–
O=C(Nc1c(F)ccnc1F)c1cc(NC(=O)[C@H]2[C@H](c3cc(Cl)cc(Cl)c3)C2(Cl)Cl)ccc1Cl [Compound 456]	80	immediate activity	immediate activity	≤ 10	immediate activity	immediate activity	–	100	100	80	–
O=C(Nc1cnc(F)cc1F)c1cc(NC(=O)[C@H]2[C@H](c3cc(Cl)cc(Cl)c3)C2(Cl)Cl)ccc1Cl [Compound 455]	100	immediate activity	immediate activity	≤ 10	immediate activity	immediate activity	–	100	100	–	longer duration of efficacy
